According to paper PMC7997032, “Organic synthesis and anti-influenza A virus activity of cyclobakuchiols A, B, C, and D” (PLoS ONE, 2021):
Where “and” joins values, the source holds several entries; their conditions need not be identical. Identical values can stand only once.

Tests used:
[1] = test system: NAD(P)H quinone oxidoreductase 1 (Nqo1); test: RT-qPCR of Nqo1 mRNA in MDCK cells with or without A/PR/8/34 virus; type: cell-based, canine; settings: 12.5uM, MDCK, relative to virus - DMSO; for NQO1 Canis lupus mRNA, ave: ave of #1-3 exp; for NQO1 Canis lupus mRNA, individual replicates: replicates 1-3 of #1, #2, #3 exp, listed as Cyclobakuchiol C
A/PR/8/34 virus [2] = test: Influenza A viral growth assay (viral titer of culture media); type: cell-based, influenza A H1N1 virus; set-up: viral titer of culture media, individual replicate / viral titer of culture media, ave: unit not given here; settings: A/PR/8/34 (PR8), 12.5uM, average of #1-3 exp (n=9)
A/WSN/33 virus [3] = test: as above; type: cell-based, influenza A H1N1 virus; settings: A/WSN/33 (WSN), 12.5uM, average of #1-3 exp (n=9)
A/PR/8/34 virus [4] = type: cell-based; settings: 12.5 μM, 24h WB
Nrf2 = Nrf2 reporter assay (dual luciferase system) in MDCK cells; type: cell-based, canine; settings: 12.5uM, relative to DMSO trans+
Method: An Nrf2 reporter assay based on the dual luciferase system was performed as previously described. The plasmid pNQO1-ARE (antioxidant response element)-Fluc, provided by Yamamoto M., expressed a Firefly luciferase gene driven by Nrf2 activation, while the plasmid pRL-TK-Rluc vector (Promega, CA, USA) expressed a Renilla luciferase gene driven by the herpes simplex viral thymidine kinase promoter as an internal control. MDCK cells were seeded in a 24-well plate at 1 × 10^5 cells/well and transfected with pNQO1-ARE-luc (0.25 μg) and pRL-TK-Rluc (0.25 μg). At 24 h post-transfection, the cells were treated with 12.5 μM cyclobakuchiols A–D in the infection medium at 37°C under 5% CO2. DMSO (0.125%) and 12.5 μM 1 were used as negative and positive controls, respectively. Total RNA was extracted from the MDCK cell lysates after 24 h of incubation. The levels of Firefly and Renilla luciferase mRNAs were analyzed by RT-qPCR and normalized to that of β-actin mRNA.

[5] = test system: canine interferon-β (Ifn-β); test: RT-qPCR of Ifn-β mRNA in MDCK cells with or without A/PR/8/34 virus; type: cell-based; settings: 12.5uM, relative to virus - DMSO; for MDCK IFN-b mRNA, ave: ave of #1-3 exp; for MDCK IFN-b mRNA, individual replicates: replicates 1-3 of #1, #2, #3 exp, listed as Cyclobakuchiol C
A/PR/8/34 virus [6] = test: RT-qPCR of viral mRNAs (NP, NS1, PA, PB1, PB2, M2) in infected MDCK cells; type: cell-based, influenza A H1N1 virus
A/WSN/33 virus [7] = test: Immunofluorescence staining of viral NP in influenza A virus-infected MDCK cells; settings: WSN
Method: MDCK cells were seeded on a 96-well plate at 1 × 10^4 cells/well. […] Each mixture was added to the cells at 37°C in the presence of 5% CO2. […] After influenza A viral infection for 24 h, the cells were fixed with 4% paraformaldehyde in phosphate-buffered saline (PBS) for 30 min at 4°C and subsequently permeabilized by the addition of 0.3% Triton X-100 for 20 min at 25°C. A mouse primary antibody was used to detect the NP of A/PR/8/34 or A/WSN/33 viruses (FluA-NP 4F1; SouthernBiotech, AL, USA). Alexa Fluor488-conjugated goat anti-mouse IgG (H + L) antibody (Thermo Fisher Scientific) was used as the secondary antibody. Cell nuclei were then stained using diamidino-2-phenylindole (DAPI) (Thermo Fisher Scientific). Wells were photographed using a fluorescence microscope (BIOREVO BZ-X700; Keyence, Osaka, Japan). The proportion of influenza A NP-positive cells per DAPI-positive cells was calculated based on measurements recorded using BZ-X Analyzer software (Keyence).

A/PR/8/34 virus [8] = test: as above; settings: for NP/DAPI (%) ave: average of 9 wells
[9] = single experiment, listed as cyclo C
[10] = MDCK cells, PR8 virus, relative to DMSO (about 1), ave of #1-3 exp (9 values)
[11] = MDCK cells, PR8 virus, relative to DMSO, replicates 1-3 of #1, #2, #3 exp, listed as Cyclobakuchiol C

Structure (SMILES): C=C[C@]1(C)CCC(C(C)(C)O)C(c2ccc(O)cc2)C1 (stereo in doubt) [cyclobakuchiol C]
- NQO1 Canis lupus mRNA, ave ([1]; virus + (PR8)): 1.3
- NQO1 Canis lupus mRNA, individual replicates ([1]; virus + (PR8)): 1.5721 and 1.53 and 1.546 and 1.742 and 0.864 and 0.8958 and 0.9507 and 1.371 and 1.2312
- NQO1 Canis lupus mRNA, ave ([1]; virus -): 1.195
- NQO1 Canis lupus mRNA, individual replicates ([1]; virus -): 1.246 and 1.375 and 1.298 and 1.334 and 1.006 and 1.078 and 1.116 and 1.24 and 1.059
- viral titer of culture media, ave (A/PR/8/34 virus [2]; 12h): 33333.3
- viral titer of culture media, ave (A/PR/8/34 virus [2]; 24h): 52222.2
- viral titer of culture media, ave (A/PR/8/34 virus [2]; 48h): 37777.8
- viral titer of culture media, ave (A/PR/8/34 virus [2]; 72h): 43333.3
- viral titer of culture media, ave (A/WSN/33 virus [3]; 12h): 8288.89
- viral titer of culture media, ave (A/WSN/33 virus [3]; 24h): 21277778
- viral titer of culture media, ave (A/WSN/33 virus [3]; 48h): 246888889
- viral titer of culture media, ave (A/WSN/33 virus [3]; 72h): 155211111
- NP/b-actin ave (A/PR/8/34 virus [4]; average of 3 experiments): 0.8052
- NS1/b-actin ave (A/PR/8/34 virus [4]; average of 3 experiments): 0.5534
- NP mean (western blot signal intensity, ImageJ) (A/PR/8/34 virus [4]; [9]): 91.764 and 95.052 and 111.845
- NP/b-actin (A/PR/8/34 virus [4]; [9]): 0.819 and 0.7 and 0.8964
- NS1/b-actin (A/PR/8/34 virus [4]; [9]): 0.4287 and 0.5327 and 0.6988
- NS1 mean (western blot signal intensity, ImageJ) (A/PR/8/34 virus [4]; [9]): 69.827 and 74.096 and 58.545
- pNQO1-ARE-Luc NRF2 reporter assay, ave (Nrf2; ave of #1-3 exp): 1.343
- pNQO1-ARE-Luc NRF2 reporter assay, individual replicates (Nrf2; two values each of #1, #2, #3 exp, listed as Cyclobakuchiol C): 1.496 and 1.13 and 1.492 and 1.034 and 1.043 and 1.865
- MDCK IFN-b mRNA, ave ([5]; virus +): 8.927
- MDCK IFN-b mRNA, individual replicates ([5]; virus +): 3.309 and 15.7023 and 10.0086 and 14.1468 and 10.7403 and 6.351 and 9.878 and 6.251 and 3.957
- MDCK IFN-b mRNA, ave ([5]; virus -): 1.684
- MDCK IFN-b mRNA, individual replicates ([5]; virus -): 0.8094 and 4.073 and 2.562 and 3.148 and 0.7696 and 1.281 and 1.389 and 0.8375 and 0.2824
- PR8 NP gene expression qPCR, ave (A/PR/8/34 virus [6]; MDCK PR8, NP mRNA, relative (DMSO about 1), average of #1-3 exp (n=9)): 0.0715
- PR8 NP gene expression qPCR, individual replicate (A/PR/8/34 virus [6]; MDCK PR8, NP mRNA, relative (DMSO about 1), replicates of #1-3 exp, listed as Cyclobakuchiol C): 0.02965 and 0.0515 and 0.04036 and 0.08601 and 0.1343 and 0.1201 and 0.1206 and 0.03078 and 0.03024
- PR8 NS1 gene expression qPCR, ave (A/PR/8/34 virus [6]; MDCK PR8, NS1 mRNA, relative (DMSO about 1), average of #1-3 exp (n=9)): 0.04238
- PR8 NS1 gene expression qPCR, individual replicate (A/PR/8/34 virus [6]; MDCK PR8, NS1 mRNA, relative (DMSO about 1), replicates of #1-3 exp, listed as Cyclobakuchiol C): 0.02453 and 0.03462 and 0.02897 and 0.02312 and 0.08062 and 0.06227 and 0.07687 and 0.03138 and 0.01906
- PR8 PA gene expression qPCR, ave (A/PR/8/34 virus [6]; MDCK PR8, PA mRNA, relative (DMSO about 1), average of #1-3 exp (n=9)): 0.04976
- PR8 PA gene expression qPCR, individual replicate (A/PR/8/34 virus [6]; MDCK PR8, PA mRNA, relative (DMSO about 1), replicates of #1-3 exp, listed as Cyclobakuchiol C): 0.02841 and 0.03504 and 0.0209 and 0.04366 and 0.1014 and 0.08076 and 0.0804 and 0.03232 and 0.02491
- PR8 M2 gene expression qPCR, ave (A/PR/8/34 virus [6]; [10]): 0.05203
- PR8 PB1 gene expression qPCR, ave (A/PR/8/34 virus [6]; [10]): 0.0394
- PR8 PB2 gene expression qPCR, ave (A/PR/8/34 virus [6]; [10]): 0.05178
- PR8 M2 gene expression qPCR, individual replicates (A/PR/8/34 virus [6]; [11]): 0.02539 and 0.04593 and 0.02488 and 0.06301 and 0.1078 and 0.07697 and 0.07009 and 0.03046 and 0.02377
- PR8 PB1 gene expression qPCR, individual replicates (A/PR/8/34 virus [6]; [11]): 0.02851 and 0.01826 and 0.01255 and 0.01866 and 0.09078 and 0.07015 and 0.07353 and 0.02182 and 0.02034
- PR8 PB2 gene expression qPCR, individual replicates (A/PR/8/34 virus [6]; [11]): 0.02749 and 0.04527 and 0.0229 and 0.05473 and 0.1042 and 0.07786 and 0.07787 and 0.03099 and 0.02468
- NP/DAPI (%) ave (A/WSN/33 virus [7]; 3.13uM, ave of 9 values (3 exp)): 25.0115%
- NP/DAPI (%) ave (A/WSN/33 virus [7]; 6.25uM, ave of 9 values (3 exp)): 26.7813%
- NP/DAPI (%) ave (A/WSN/33 virus [7]; 12.5uM, ave of 9 values (3 exp)): 26.2263%
- NP/DAPI (%) ave (A/WSN/33 virus [7]; 25uM, ave of 9 values (3 exp)): 34.9195%
- NP/DAPI (%) ave (A/WSN/33 virus [7]; ave summary, 3.13%): 25.0115%
- NP/DAPI (%) ave (A/WSN/33 virus [7]; ave summary, 6.25%): 26.7813%
- NP/DAPI (%) ave (A/WSN/33 virus [7]; ave summary, 12.50%): 26.2263%
- NP/DAPI (%) ave (A/WSN/33 virus [7]; ave summary, 25%): 34.9195%
- NP/DAPI (%) ave (A/PR/8/34 virus [8]; A/PR/8/34, 3.13 uM): 6.545%
- NP/DAPI (%) ave (A/PR/8/34 virus [8]; A/PR/8/34, 6.25 uM): 2.732%
- NP/DAPI (%) ave (A/PR/8/34 virus [8]; A/PR/8/34, 12.5 uM): 1.281%
- NP/DAPI (%) ave (A/PR/8/34 virus [8]; A/PR/8/34, 25 uM): 1.024%
- IC50 (A/PR/8/34 virus [8]; Influenza A virus, PR/8, MDCK, read-out: half maximal (50%) inhibitory concentration (IC50)): 4.6 ± 2.2 µM
